Test results: patent US20250059164A1, “IRAK DEGRADERS AND USES THEREOF” (Kymera Therapeutics, Inc., priority 2023, published 2025)

Experiments:
IRAK4 = biological target: T1, IRAK4 (Homo sapiens, UniProt Q9NWZ3); assay: IRAK4 MSD degradation in OCI-LY10; format: cell-based; settings: OCI-LY10 cells, 24 hrs, Meso Scale Discovery
T1 construct: endogenous in cells; host or cells: OCI-LY10
T1 sequence (Q9NWZ3 1-460): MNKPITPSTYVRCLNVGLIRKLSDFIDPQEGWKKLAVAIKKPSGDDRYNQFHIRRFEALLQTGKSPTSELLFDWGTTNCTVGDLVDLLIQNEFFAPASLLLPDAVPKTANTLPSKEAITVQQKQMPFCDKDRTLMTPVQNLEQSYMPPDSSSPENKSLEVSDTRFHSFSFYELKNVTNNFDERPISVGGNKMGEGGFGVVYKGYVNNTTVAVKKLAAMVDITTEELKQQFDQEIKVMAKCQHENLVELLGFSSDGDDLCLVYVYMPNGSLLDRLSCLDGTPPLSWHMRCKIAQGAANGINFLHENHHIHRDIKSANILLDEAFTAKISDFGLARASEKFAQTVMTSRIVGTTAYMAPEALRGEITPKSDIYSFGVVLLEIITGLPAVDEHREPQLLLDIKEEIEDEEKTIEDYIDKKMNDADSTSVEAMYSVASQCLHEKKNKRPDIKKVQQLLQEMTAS
In short: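 OCI-LY10 cells treated 4 to 24 hours at 37° C. with 8-dose 1:3 series, top 1 to 10 μM. IRAK4 in lysates quantified by MSD sandwich immunoassay (mouse capture, rabbit detection, SULFO-TAG anti-rabbit). DC50 from three-parameter logistic fit.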

[1] = Rodent pharmacokinetics (rat PK); format: in vivo; settings: po, dosed intravenously or orally by gavage, plasma, read-out: F % (bioavailability)
In short: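 Rats were dosed IV or by oral gavage, with jugular blood taken predose and at 5 min (IV only), 15, 30 min and 1, 2, 4, 8, 24 h. Plasma was separated by centrifugation at 4 °C. Oral bioavailability (F %) is coded A (≥5%) or B (≤5%).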

Row | SMILES | DC50 (IRAK4) [nM] | bioavailability [1] [%]
1 | Cn1c(=O)n(C2CCC(=O)NC2=O)c2cccc([C@@H]3CCN(C[C@H]4CC[C@H](n5cc6cc(NC(=O)c7cncc(C(F)(F)F)n7)c(C(C)(C)O)cc6n5)CC4)C[C@H]3F)c21 (some centres unmarked) [I-171] | < 10 | ≤ 5
2 | Cn1c(=O)n(C2CCC(=O)NC2=O)c2cccc([C@@H]3CCN(C[C@H]4CC[C@H](n5cc6cc(NC(=O)c7cncc(C(F)(F)F)n7)c(C#N)cc6n5)CC4)C[C@H]3F)c21 (some centres unmarked) [I-172] | < 10 | ≤ 5
3 | Cn1c(=O)n(C2CCC(=O)NC2=O)c2cccc([C@@H]3CCN(C[C@H]4CC[C@H](c5nc6cc(C(C)(C)O)c(NC(=O)c7cncc(C(F)(F)F)n7)cc6s5)CC4)C[C@H]3F)c21 (some centres unmarked) [I-173] | < 10 | ≤ 5
4 | Cn1c(=O)n(C2CCC(=O)NC2=O)c2cccc([C@@H]3CCN(C[C@H]4CC[C@H](n5cc6cc(NC(=O)c7cc(C(F)(F)F)cnn7)ccc6n5)CC4)C[C@H]3F)c21 (some centres unmarked) [I-175] | > 200 | ≤ 5
5 | Cn1c(=O)n(C2CCC(=O)NC2=O)c2cccc(C#CCN3CCN(C[C@H]4CC[C@H](n5cc(NC(=O)c6cnn7ccc(N8C[C@H]9C[C@@H]8CO9)nc67)c(C(F)F)n5)CC4)C(=O)C3)c21 (some centres unmarked) [I-185] | < 10 | ≤ 5
6 | Cn1c(=O)n(C2CCC(=O)NC2=O)c2cccc(C#CCN3CCN(C[C@H]4CC[C@H](n5cc(NC(=O)c6cnn7ccc(N8C[C@H]9C[C@@H]8CO9)nc67)c(C(F)F)n5)CC4)CC3=O)c21 (some centres unmarked) [I-186] | < 10 | ≤ 5
7 | Cn1c(=O)n(C2CCC(=O)NC2=O)c2cccc([C@@H]3CCN(C[C@H]4CC[C@H](n5cc6cc(NC(=O)c7cncc(C#N)c7)c(C(C)(C)O)cc6n5)CC4)C[C@H]3F)c21 (some centres unmarked) [I-188] | < 10 | ≤ 5
8 | COc1cc2nn([C@H]3CC[C@H](CN4CC[C@@H](c5cccc6c5n(C)c(=O)n6C5CCC(=O)NC5=O)[C@H](F)C4)CC3)cc2cc1NC(=O)c1cncc(C(F)(F)F)n1 (some centres unmarked) [I-189] | < 10 | ≤ 5
9 | Cn1c(=O)n(C2CCC(=O)NC2=O)c2cccc([C@@H]3CCN(C[C@H]4CC[C@H](n5cc6cc(NC(=O)c7ccnc(C(F)(F)F)n7)ccc6n5)CC4)C[C@H]3F)c21 (some centres unmarked) [I-190] | > 200 | ≤ 5
10 | Cn1c(=O)n(C2CCC(=O)NC2=O)c2cccc(N3CCC(F)(CN4CCC(c5nc6cc(C(C)(C)O)c(NC(=O)c7cccc(C(F)(F)F)n7)cc6s5)CC4)CC3)c21 (centres unmarked) [I-191] | 10 to 100 | ≤ 5
11 | Cn1c(=O)n(C2CCC(=O)NC2=O)c2cccc([C@@H]3CCN(C[C@H]4CC[C@H](c5cn6cc(NC(=O)c7cncc(C(F)(F)F)n7)ccc6n5)CC4)C[C@H]3F)c21 (some centres unmarked) [I-193] | < 10 | ≤ 5
12 | Cn1c(=O)n(C2CCC(=O)NC2=O)c2cccc([C@@H]3CCN(C[C@H]4CC[C@H](c5cc6cc(NC(=O)c7cncc(C(F)(F)F)n7)ccn6n5)CC4)C[C@H]3F)c21 (some centres unmarked) [I-194] | < 10 | ≥ 5
13 | Cn1c(=O)n(C2CCC(=O)NC2=O)c2cccc([C@@H]3CCN(C[C@H]4CC[C@H](n5cc6cc(NC(=O)c7nccc(C(F)(F)F)n7)ccc6n5)CC4)C[C@H]3F)c21 (some centres unmarked) [I-195] | > 200 | ≤ 5
14 | Cn1c(=O)n(C2CCC(=O)NC2=O)c2cccc([C@@H]3CCN(C[C@H]4CC[C@H](n5cc6cc(NC(=O)c7cc(C(F)(F)F)ncn7)ccc6n5)CC4)C[C@H]3F)c21 (some centres unmarked) [I-196] | > 200 | ≤ 5
15 | Cn1c(=O)n(C2CCC(=O)NC2=O)c2cccc(N3CCC(F)(CN4CCC(c5nc6cc(C(C)(C)O)c(NC(=O)c7cccc(C(F)(F)F)n7)cc6o5)CC4)CC3)c21 (centres unmarked) [I-197] | > 200 | ≤ 5
16 | COc1cc2nn([C@H]3CC[C@H](CN4CC[C@@H](c5cccc6c5n(C)c(=O)n6C5CCC(=O)NC5=O)[C@H](F)C4)CC3)cc2cc1C(=O)Nc1cccc(C(F)(F)F)n1 (some centres unmarked) [I-200] | < 10 | ≤ 5
17 | Cn1c(=O)n(C2CCC(=O)NC2=O)c2cccc([C@@H]3CCN(C[C@H]4CC[C@H](n5cc6cc(C(=O)Nc7cccc(C(F)(F)F)n7)ccc6n5)CC4)C[C@H]3F)c21 (some centres unmarked) [I-201] | < 10 | ≤ 5

Results, then the compound that gave them:

Row | DC50 (IRAK4) [nM] | bioavailability [1] [%] | SMILES
18 | < 10 | ≤ 5 | Cn1c(=O)n(C2CCC(=O)NC2=O)c2cccc([C@@H]3CCN(C[C@H]4CC[C@H](n5cc6cc(NC(=O)c7cncc(C(F)(F)F)n7)c(Cl)cc6n5)CC4)C[C@H]3F)c21 (some centres unmarked) [I-210]
19 | < 10 | ≤ 5 | Cn1c(=O)n(C2CCC(=O)NC2=O)c2cccc([C@@H]3CCN(C[C@H]4CC[C@H](n5cc6cc(NC(=O)c7cncc(C(F)(F)F)n7)c(C(F)F)cc6n5)CC4)C[C@H]3F)c21 (some centres unmarked) [I-214]
20 | < 10 | ≤ 5 | COc1cc2nn([C@H]3CC[C@H](CN4CCC5(CCN(c6cccc7c6n(C)c(=O)n7C6CCC(=O)NC6=O)CC5)C(F)(F)C4)CC3)cc2cc1C(=O)Nc1cncc(C#N)c1 (some centres unmarked) [I-228]
21 | < 10 | ≤ 5 | COc1cc2nn([C@H]3CC[C@H](CN4CCC5(CN(c6cccc7c6n(C)c(=O)n7C6CCC(=O)NC6=O)C5)C(F)(F)C4)CC3)cc2cc1NC(=O)c1cncc(C)c1 (some centres unmarked) [I-243]
22 | < 10 | ≤ 5 | Cn1c(=O)n(C2CCC(=O)NC2=O)c2cccc([C@@H]3CCN(C[C@H]4CC[C@H](n5cc6cc(NC(=O)c7cccc(C(F)(F)F)c7)ncc6n5)CC4)C[C@H]3F)c21 (some centres unmarked) [I-244]
23 | < 10 | ≤ 5 | Cn1c(=O)n(C2CCC(=O)NC2=O)c2cccc([C@@H]3CCN(C[C@H]4CC[C@H](n5cc6cc(NC(=O)c7cccc(C(F)(F)F)c7)ccc6n5)CC4)C[C@H]3F)c21 (some centres unmarked) [I-245]
24 | < 10 | ≤ 5 | COc1cc2nn([C@H]3CC[C@H](CN4CC[C@@H](c5cccc6c5n(C)c(=O)n6C5CCC(=O)NC5=O)[C@H](F)C4)CC3)cc2cc1NC(=O)c1cccc(C(F)(F)F)c1 (some centres unmarked) [I-246]
25 | < 10 | ≤ 5 | COc1cc2nn([C@H]3CC[C@H](CN4CCC5(CN(c6cccc7c6n(C)c(=O)n7C6CCC(=O)NC6=O)C5)C(F)(F)C4)CC3)cc2cc1NC(=O)c1cncc(C#N)c1 (some centres unmarked) [I-247]
26 | < 10 | ≤ 5 | COc1cc2nn([C@H]3CC[C@H](CN4CCC5(CN(c6cccc7c6n(C)c(=O)n7C6CCC(=O)NC6=O)C5)C(F)(F)C4)CC3)cc2cc1NC(=O)c1cncc(F)c1 (some centres unmarked) [I-248]
27 | < 10 | ≤ 5 | Cn1c(=O)n(C2CCC(=O)NC2=O)c2cccc([C@@H]3CCN(C[C@H]4CC[C@H](n5cc6cc(NC(=O)c7cccc(C#N)c7)ccc6n5)CC4)C[C@H]3F)c21 (some centres unmarked) [I-249]
28 | < 10 | ≤ 5 | COc1cc2nn([C@H]3CC[C@H](CN4CC[C@@H](c5cccc6c5n(C)c(=O)n6C5CCC(=O)NC5=O)[C@H](F)C4)CC3)cc2cc1NC(=O)c1cccc(C#N)c1 (some centres unmarked) [I-250]
29 | < 10 | ≤ 5 | COc1cc2nn([C@H]3CC[C@H](CN4CC[C@@H](c5cccc6c5n(C)c(=O)n6C5CCC(=O)NC5=O)[C@H](F)C4)CC3)cc2cc1NC(=O)c1cncc(C(F)(F)F)c1 (some centres unmarked) [I-252]
30 | < 10 | ≤ 5 | Cn1c(=O)n(C2CCC(=O)NC2=O)c2cccc(N3CC4(CCN(C[C@H]5CC[C@H](n6cc7cc(NC(=O)c8cccc(C(F)(F)F)c8)ncc7n6)CC5)CC4(F)F)C3)c21 (some centres unmarked) [I-253]
31 | < 10 | ≤ 5 | Cn1c(=O)n(C2CCC(=O)NC2=O)c2cccc(N3CC4(CCN(C[C@H]5CC[C@H](n6cc7cc(NC(=O)c8cccc(C(F)(F)F)c8)ccc7n6)CC5)CC4(F)F)C3)c21 (some centres unmarked) [I-254]
32 | < 10 | ≤ 5 | COc1cc2nn([C@H]3CC[C@H](CN4CCC5(CN(c6cccc7c6n(C)c(=O)n7C6CCC(=O)NC6=O)C5)C(F)(F)C4)CC3)cc2cc1NC(=O)c1cccc(C(F)(F)F)c1 (some centres unmarked) [I-255]
33 | > 200 | ≤ 5 | Cn1c(=O)n(C2CCC(=O)NC2=O)c2cccc(N3CC(OC[C@H]4CC[C@H](n5cc(NC(=O)c6cnn7ccc(N8C[C@H]9C[C@@H]8CO9)nc67)c(C(F)F)n5)CC4)C3)c21 (some centres unmarked) [I-256]
34 | < 10 | ≤ 5 | COc1cc2nn([C@H]3CC[C@H](CN4CCC5(CCN(c6cccc7c6n(C)c(=O)n7C6CCC(=O)NC6=O)CC5)C(F)(F)C4)CC3)cc2cc1NC(=O)c1cncc(C)c1 (some centres unmarked) [I-257]
35 | < 10 | ≤ 5 | COc1cc2nn([C@H]3CC[C@H](CN4CCC5(CCN(c6cccc7c6n(C)c(=O)n7C6CCC(=O)NC6=O)CC5)C(F)(F)C4)CC3)cc2cc1NC(=O)c1cncc(C#N)c1 (some centres unmarked) [I-259]
36 | < 10 | ≤ 5 | COc1cc2nn([C@H]3CC[C@H](CN4CCC5(CN(c6c(F)ccc7c6n(C)c(=O)n7C6CCC(=O)NC6=O)C5)C(F)(F)C4)CC3)cc2cc1NC(=O)c1cncc(C#N)c1 (some centres unmarked) [I-260]
37 | < 10 | ≤ 5 | Cn1c(=O)n(C2CCC(=O)NC2=O)c2cccc([C@@H]3CCN(C[C@H]4CC[C@H](c5cn6cc(NC(=O)c7cccc(C(F)(F)F)n7)ccc6n5)CC4)C[C@H]3F)c21 (some centres unmarked) [I-262]
